# Experimental data as given in patent US7728012B2, “Carboxamide compounds and their use as calpain inhibitors” (Abbott GmbH & Co. KG, priority 2006, dated 2010).
# Tests used:
# Type in all cases: biochemical
# [1] = target: T1, calpain-I isolated from human erythrocytes (Homo sapiens, UniProt P07384); test: Calpain I kinetic fluorescence enzyme inhibition assay; conditions: apparent Ki from IC50 by Cheng-Prussoff; average of 2 to 4 dose-effect plots
# T1 construct: calpain-I—isolated from human erythrocytes; purchased Calbiochem 208713; host or cells: human erythrocytes (tissue isolate)
# T1 sequence (P07384 1-714): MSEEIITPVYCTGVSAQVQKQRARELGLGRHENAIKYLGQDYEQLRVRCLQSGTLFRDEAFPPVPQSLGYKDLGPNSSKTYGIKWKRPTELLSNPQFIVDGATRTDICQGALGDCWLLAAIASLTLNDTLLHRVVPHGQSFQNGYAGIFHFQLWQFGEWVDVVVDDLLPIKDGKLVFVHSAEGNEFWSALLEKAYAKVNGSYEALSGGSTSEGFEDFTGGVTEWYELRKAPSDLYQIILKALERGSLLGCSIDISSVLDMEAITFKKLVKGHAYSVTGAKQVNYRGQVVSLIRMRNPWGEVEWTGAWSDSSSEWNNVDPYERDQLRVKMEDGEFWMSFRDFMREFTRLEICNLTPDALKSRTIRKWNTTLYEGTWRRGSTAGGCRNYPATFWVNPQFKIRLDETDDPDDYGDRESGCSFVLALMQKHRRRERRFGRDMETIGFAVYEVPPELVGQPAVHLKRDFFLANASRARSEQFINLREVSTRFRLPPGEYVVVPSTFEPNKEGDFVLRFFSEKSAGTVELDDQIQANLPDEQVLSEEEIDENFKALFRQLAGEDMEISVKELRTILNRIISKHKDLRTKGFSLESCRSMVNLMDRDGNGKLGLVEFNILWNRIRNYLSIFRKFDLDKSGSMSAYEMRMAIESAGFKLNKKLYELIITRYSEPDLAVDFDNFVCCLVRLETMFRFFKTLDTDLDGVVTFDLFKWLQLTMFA
# T1 sequence (P04632 1-268 partner): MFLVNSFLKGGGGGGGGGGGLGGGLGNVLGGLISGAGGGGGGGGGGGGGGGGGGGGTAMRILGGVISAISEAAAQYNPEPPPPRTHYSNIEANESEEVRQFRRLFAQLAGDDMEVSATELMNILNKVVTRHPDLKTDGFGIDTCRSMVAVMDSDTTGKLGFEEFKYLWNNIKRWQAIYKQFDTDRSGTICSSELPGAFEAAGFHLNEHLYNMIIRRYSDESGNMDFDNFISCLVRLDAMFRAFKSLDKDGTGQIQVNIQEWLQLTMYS
# [2] = target: T2, recombinant human cathepsin S (Homo sapiens, UniProt P25774); test: Cathepsin S kinetic fluorescence enzyme inhibition assay; conditions: selectivity ratio versus calpain I
# T2 construct: purchased Calbiochem 219343; host or cells: E. coli
# T2 sequence (P25774 115-331): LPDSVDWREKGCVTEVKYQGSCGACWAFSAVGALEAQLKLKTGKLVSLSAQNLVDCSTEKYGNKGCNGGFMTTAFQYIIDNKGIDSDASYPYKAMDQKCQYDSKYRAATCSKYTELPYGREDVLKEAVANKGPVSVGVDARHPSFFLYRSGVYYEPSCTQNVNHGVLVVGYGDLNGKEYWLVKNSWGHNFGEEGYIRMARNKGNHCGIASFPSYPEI
# Outline: (§1)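 Kinetic fluorescence (ex 390/em 460 nm) at room temperature in 50 mM MES, 2 mM EDTA, 0.05% Brij 35, 2.5 mM L-cysteine, pH 6.0. Cathepsin B (liver, 0.25 nM) with 100 μM Z-Phe-Arg-AMC; cathepsin L (liver, 1 nM) with 2 μM Z-Phe-Arg-AMC; recombinant E. coli cathepsin S (0.5 nM) with 20 μM Z-Val-Val-Arg-AMC. Ki via Cheng-Prusoff.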
# [3] = target: T3, cathepsin K activated from recombinant human procathepsin K (Homo sapiens, UniProt P43235); test: Cathepsin K kinetic fluorescence enzyme inhibition assay; conditions: selectivity ratio versus calpain I
# T3 construct: purchased Calbiochem 342001; host or cells: E. coli
# T3 sequence (P43235 115-329): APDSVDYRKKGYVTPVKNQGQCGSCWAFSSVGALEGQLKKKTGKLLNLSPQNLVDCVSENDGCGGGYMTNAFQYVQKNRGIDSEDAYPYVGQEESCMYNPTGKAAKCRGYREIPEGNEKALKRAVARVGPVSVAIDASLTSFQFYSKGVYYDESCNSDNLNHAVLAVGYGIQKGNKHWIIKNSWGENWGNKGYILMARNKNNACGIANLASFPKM
# [4] = target: T4, cathepsin L isolated from human liver (Homo sapiens, UniProt P07711); test: Cathepsin L kinetic fluorescence enzyme inhibition assay; conditions: selectivity ratio versus calpain I
# T4 construct: cathepsin L—isolated from human liver; purchased Calbiochem 219402; host or cells: human liver (tissue isolate)
# T4 sequence (P07711 114-333): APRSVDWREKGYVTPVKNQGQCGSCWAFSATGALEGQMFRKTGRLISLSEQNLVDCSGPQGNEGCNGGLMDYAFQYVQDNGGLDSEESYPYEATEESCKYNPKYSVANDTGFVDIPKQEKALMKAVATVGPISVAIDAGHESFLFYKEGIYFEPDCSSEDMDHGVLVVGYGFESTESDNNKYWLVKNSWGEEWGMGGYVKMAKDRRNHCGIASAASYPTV
# Outline: as §1
# [5] = target: T5, cathepsin B isolated from human liver (Homo sapiens, UniProt P07858); test: Cathepsin B kinetic fluorescence enzyme inhibition assay; conditions: selectivity ratio versus calpain I
# T5 construct: cathepsin B—isolated from human liver; purchased Calbiochem 219362; host or cells: human liver (tissue isolate)
# Outline: as §1
Ki [1],SMILES,Sel cat. S (Ki(cathepsin S)/Ki(calpain) ratio) [2],Sel cat. K (Ki(cathepsin K)/Ki(calpain) ratio) [3],Sel cat. L (Ki(cathepsin L)/Ki(calpain) ratio) [4],Sel cat. B (Ki(cathepsin B)/Ki(calpain) ratio) [5]
≤ 40 nM,"NC(=O)C(=O)C(Cc1ccccc1)NC(=O)c1cccnc1-n1cc2c(n1)-c1cccc(Cl)c1OC2 (stereo not shown) [Example 175, N-[3-Amino-2,3-dioxo-1-(phenylmethyl)propyl]-2-(6-chlorochromeno[4,3-c]pyrazol-2(4H)-yl)pyridine-3-carboxamide]",++ (Ki(cathepsin S)/Ki(calpain) ratio of ≧100),++ (Ki(cathepsin K)/Ki(calpain) ratio of ≧30),++ (Ki(cathepsin L)/Ki(calpain) ratio of ≧50),++ (Ki(cathepsin B)/Ki(calpain) ratio of ≧30)
40 to 100 nM,"COc1ccc(CC(NC(=O)c2cccnc2-n2ccc(-c3ccc4c(c3)OC(F)(F)O4)n2)C(=O)C(N)=O)cc1 (stereo not shown) [Example 137, N-(3-Amino-1-{[4-(methyloxy)phenyl]methyl}-2,3-dioxopropyl)-2-[3-(2,2-difluoro-1,3-benzodioxol-5-yl)-1H-pyrazol-1-yl]pyridine-3-carboxamide]",++ (Ki(cathepsin S)/Ki(calpain) ratio of ≧100),+ (10≦Ki(cathepsin K)/Ki(calpain)<30),++ (Ki(cathepsin L)/Ki(calpain) ratio of ≧50),+ (10≦Ki(cathepsin B)/Ki(calpain)<30)
≤ 40 nM,"CC(C)c1ccc(-c2ccn(-c3ncccc3C(=O)NC(Cc3ccccc3)C(=O)C(N)=O)n2)cc1 (stereo not shown) [Example 87, N-[3-Amino-2,3-dioxo-1-(phenylmethyl)propyl]-2-{3-[4-(1-methylethyl)phenyl]-1H-pyrazol-1-yl}pyridine-3-carboxamide]",++ (Ki(cathepsin S)/Ki(calpain) ratio of ≧100),++ (Ki(cathepsin K)/Ki(calpain) ratio of ≧30),++ (Ki(cathepsin L)/Ki(calpain) ratio of ≧50),++ (Ki(cathepsin B)/Ki(calpain) ratio of ≧30)
≤ 40 nM,"NC(=O)C(=O)C(Cc1ccccc1)NC(=O)c1cccnc1-n1ccc(C23CC4CC(CC(C4)C2)C3)n1 (stereo not shown) [Example 193, N-[3-Amino-2,3-dioxo-1-(phenylmethyl)propyl]-2-(3-tricyclo[3.3.1.1^3,7]dec-1-yl-1H-pyrazol-1-yl)pyridine-3-carboxamide]",++ (Ki(cathepsin S)/Ki(calpain) ratio of ≧100),++ (Ki(cathepsin K)/Ki(calpain) ratio of ≧30),++ (Ki(cathepsin L)/Ki(calpain) ratio of ≧50),++ (Ki(cathepsin B)/Ki(calpain) ratio of ≧30)
≤ 40 nM,"NC(=O)C(=O)C(Cc1ccccc1)NC(=O)c1cccnc1-n1ccc(-c2cccc(N3CCOCC3)c2)n1 (stereo not shown) [Example 58, N-(3-Amino-1-benzyl-2,3-dioxopropyl)-2-[3-(3-morpholin-4-ylphenyl)-1H-pyrazol-1-yl]nicotinamide]",++ (Ki(cathepsin S)/Ki(calpain) ratio of ≧100),+ (10≦Ki(cathepsin K)/Ki(calpain)<30),++ (Ki(cathepsin L)/Ki(calpain) ratio of ≧50),+ (10≦Ki(cathepsin B)/Ki(calpain)<30)
≤ 40 nM,"NC(=O)C(=O)C(Cc1ccccc1)NC(=O)c1cccnc1-n1ccc(-c2ccc(Cl)s2)n1 (stereo not shown) [Example 103, N-[3-Amino-2,3-dioxo-1-(phenylmethyl)propyl]-2-[3-(5-chloro-2-thienyl)-1H-pyrazol-1-yl]pyridine-3-carboxamide]",++ (Ki(cathepsin S)/Ki(calpain) ratio of ≧100),+ (10≦Ki(cathepsin K)/Ki(calpain)<30),++ (Ki(cathepsin L)/Ki(calpain) ratio of ≧50),+ (10≦Ki(cathepsin B)/Ki(calpain)<30)
≤ 40 nM,"COc1ccc(CC(NC(=O)c2cccnc2-n2ccc(-c3cccc(Cl)c3Cl)n2)C(=O)C(N)=O)cc1 (stereo not shown) [Example 153, N-(3-Aamino-1-{[4-(methyloxy)phenyl]methyl}-2,3-dioxopropyl)-2-[3-(2,3-dichlorophenyl)-1H-pyrazol-1-yl]pyridine-3-carboxamide]",++ (Ki(cathepsin S)/Ki(calpain) ratio of ≧100),++ (Ki(cathepsin K)/Ki(calpain) ratio of ≧30),++ (Ki(cathepsin L)/Ki(calpain) ratio of ≧50),++ (Ki(cathepsin B)/Ki(calpain) ratio of ≧30)
≤ 40 nM,"COc1ccc2c(c1)OCc1cn(-c3ncccc3C(=O)NC(Cc3ccccc3)C(=O)C(N)=O)nc1-2 (stereo not shown) [Example 142, N-[3-Amino-2,3-dioxo-1-(phenylmethyl)propyl]-2-[7-(methyloxy)chromeno[4,3-c]pyrazol-2(4H)-yl]pyridine-3-carboxamide]",++ (Ki(cathepsin S)/Ki(calpain) ratio of ≧100),+ (10≦Ki(cathepsin K)/Ki(calpain)<30),++ (Ki(cathepsin L)/Ki(calpain) ratio of ≧50),+ (10≦Ki(cathepsin B)/Ki(calpain)<30)
40 to 100 nM,"NC(=O)C(=O)C(Cc1ccc(OC(F)(F)F)cc1)NC(=O)c1cccnc1-n1ccc(-c2ccccc2)n1 (stereo not shown) [Example 133, N-[3-Amino-2,3-dioxo-1-({4-[(trifluoromethyl)oxy]phenyl}methyl)propyl]-2-(3-phenyl-1H-pyrazol-1-yl)pyridine-3-carboxamide]",++ (Ki(cathepsin S)/Ki(calpain) ratio of ≧100),++ (Ki(cathepsin K)/Ki(calpain) ratio of ≧30),++ (Ki(cathepsin L)/Ki(calpain) ratio of ≧50),++ (Ki(cathepsin B)/Ki(calpain) ratio of ≧30)
≤ 40 nM,"COc1ccc(CC(NC(=O)c2cccnc2-n2ccc(-c3ccc(Cl)cc3Cl)n2)C(=O)C(N)=O)cc1 (stereo not shown) [Example 98, N-(3-Amino-1-{[4-(methyloxy)phenyl]methyl}-2,3-dioxopropyl)-2-[3-(2,4-dichlorophenyl)-1H-pyrazol-1-yl]pyridine-3-carboxamide]",++ (Ki(cathepsin S)/Ki(calpain) ratio of ≧100),++ (Ki(cathepsin K)/Ki(calpain) ratio of ≧30),++ (Ki(cathepsin L)/Ki(calpain) ratio of ≧50),++ (Ki(cathepsin B)/Ki(calpain) ratio of ≧30)
≤ 40 nM,"NC(=O)C(=O)C(Cc1ccccc1)NC(=O)c1cccnc1-n1ccc(-c2cccc(Cl)c2)n1 (stereo not shown) [Example 70, N-(3-Amino-1-benzyl-2,3-dioxopropyl)-2-[3-(3-chlorophenyl)-1H-pyrazol-1-yl]nicotinamide]",++ (Ki(cathepsin S)/Ki(calpain) ratio of ≧100),+ (10≦Ki(cathepsin K)/Ki(calpain)<30),++ (Ki(cathepsin L)/Ki(calpain) ratio of ≧50),+ (10≦Ki(cathepsin B)/Ki(calpain)<30)
